In patent publication US6559099B1, “Methods for enhancing plant health, protecting plants from biotic and abiotic stress related injuries and enhancing the recovery of plants injured as a result of such stresses” (Wisconsin Alumni Research Foundation, priority 2000, dated 2003):
“And” between values parts separate entries of the source, which are not always exact repeats. Identical values can stand only once.

What was measured:
Type in all cases: in vivo
Tomato Plants cv. H9144 [1] = assay: Protection of pesticide (Marathon, imidacloprid) injury and enhancement of recovery; details: 200 mg/L in 1% ethanol; 10 days after spraying (FIG. 3)
Excerpt: Marathon with active […] of imidacloprid (available from Olympic Chemical Co., PO Box K, Mainland, Pa.) is a pesticide used for controlling whitefly in plants. This is a systemic pesticide and is introduced to the plant via soil application. As the pesticide accumulates in the foliage the insects feeding on the plants are killed. Sometimes as this chemical accumulates in the plant it can result in phytotoxicity to the plant. To test this, tomato plants cv. […] (cultivar of Heinz Co.) were grown for two (2) months in 20 liter pots in a greenhouse. […] Many leaves lost chlorophyll and plants had poor shoot growth. Three weeks after the treatment of pesticide, […]18:1 or LPI (200 mg/L each) solution containing 1% ethanol were sprayed to the point that solution started to run off the leaves. Control plants were sprayed with distilled water containing 1% ethanol. The LPE solution was prepared by wetting 200 mg of LPE in 1 ml ethanol and then adding distilled water to make 1 liter of total volume. The LPE solution was then sonicated 1 minute before spraying.

Tomato plants cv. H9478 = assay: Protection of drought injury and enhancement of recovery
Method: Tomato plants cv. […] (cultivar of Heinz Co.) were grown in 20 liter pots and placed in a growth chamber maintained at 24/18° C. day/night temperatures and a 16 hour photoperiod with 400 μmol m^-2s^-1 of cool-white fluorescent lights. Two month-old plants were sprayed with either distilled water, […]) or LPE 18:1 (100 mg/L) before exposure to drought stress. Drought stress was given by withholding water for 2 days. The plants were sprayed once again with distilled water, […]) or LPE 18:1 (100 mg/L) right after water was given (alleviation of water stress). During drought stress, all water, […] 18:1-sprayed plants were severely wilted but regained turgor soon after water was given again.

'Hazel' oat seeds = assay: Seedling vigour (root and shoot fresh weight) of 'Hazel' oats soaked in LPE or LPC; details: 10 ppm (each), incubated at 20° C.; for Root fresh wt per seedling / Shoot Fresh wt per seedling: soaked 30 minutes; for Root fresh wt per seedlings / Shoot Fresh wt per seedlings: soaked 2 hours
Excerpt: Values are mean±SE (4 replications). […] Values are mean±SE (4 replications).

Tomato Plants cv. H9144 [2] = assay: Protection of chilling injury and enhancement of recovery, tomato seedlings; details: for Leaf Chlorophyll Mean ± SE / Leaf Phospholipids Mean ± SE / Leaf Water (fresh/dry wt ratio) Mean ± SE: measured 10 days after chilling
Method: Tomato Plants cv. […] (cultivar of Heinz Co.) were grown in 20-liter pots containing […], Ohio) in a greenhouse which was supplied with additional tungsten light for a 16 hour photoperiod. […] Control leaf branch was sprayed with distilled water. The LPE solution was prepared by suspending 200 mg of crude […] (Avanti Polar Lipids, Inc., Alabaster, Ala.) in one liter of distilled water and then sonicating for 1 minute before spraying. After 4 days of chilling treatment at 4/2° C. day/night temperatures and a 16 hour photoperiod with 200 μmol m^-2 s^-1 fluorescent light intensity, plants were transferred to a growth chamber maintained at 24/18° C. day/night temperatures and a 16 hour photoperiod with 400 μmol m^-2 s^-1 of fluorescent light intensity. […] When measured 10 days after chilling, LPE-sprayed leaf tissues, either before or after chilling, had higher levels of water, chlorophyll, and phospholipid content than water-sprayed control (see Table 1 below). […] Chilling and recovery conditions were the same as in Example 1a above.

[3] = test system: Cucumber (Cucumis sativus inbred line-WI2238) plants; assay: Protection of chilling injury and recovery, cucumber seedlings; details: 100 mg/L sprayed twice, 1 hour before and right after 2 days chilling
Method: Cucumber (Cucumis sativus inbred line-WI2238) plants were grown in 4 liter plastic pots containing a sterilized mixture of peat:sand:composited soil:field soil (1:1:1:1, v/v) at a greenhouse. Growing conditions and other details were same as in Example 1a. […] After 2 days of chilling treatment at the same conditions as in Example 1a , plants were transferred to a growth chamber maintained at 23±2° C. temperature and 16 hour photoperiod with 400 μmol […] of fluorescent light intensity.

[4] = test system: castor bean (Ricinus communis L. cv Hale)
[5] = test system: Sweet corn seeds (SS Jubilee); assay: Germination and seedling fresh mass of sweet corn seeds soaked in LPE solution; details: soaked 2 hours
Method: Sweet corn seeds (SS Jubilee, certified seed obtained from the Wisconsin Crop Improvement Association, Madison Wis.) were soaked for 2 hours in LPE solution. Seeds were removed from the LPE solution and 50 seeds were placed on 2 paper towels and wetted with distilled water (5 seeds in one row) then seeds were covered with another wet paper towel. The three towels with the seeds were rolled, placed in a metal container and incubated at 25° C. The container was covered with plastic and the cover secured with a rubber band. The germination percentage was tested after 4 and 7 days. The procedure was as specified by the Association of Official Seed Analysts. Four replications were conducted with 50 seeds in each replication. […] Furthermore, LPE treated seeds produced larger (root and shoot) seedlings. SS Jubilee sweet corn seeds were soaked for 2 hours in LPE solution. Seeds were incubated using the same procedure described in Example 6. The germination percentage was tested after 4 and 7 days. Four replications were conducted with 50 seeds in each replication. […] On a commercial level, this means that LPE treatment of the seeds will insure more plants in a given field and that LPE treated seeds will produce plants having a head start.

H.2350 field corn seeds = assay: Germination and seedling fresh weight of field corn seeds soaked in LPE solution; details: incubated at 25° C. for 8 days
Method: H.2350 (Certified seed obtained from the Wisconsin Crop Improvement Association, Madison, Wis.) field corn seeds were soaked in LPE solution. Seeds were incubated at 25° C. for 8 days using the procedure described in Example 6. Four replications were conducted with 50 seeds in each replication.

'Hazel' oats = assay: Germination of 'Hazel' oats soaked in LPE or LPC; details: 10 ppm (each), incubated at 20° C.
Method: ‘Hazel’ oats (Certified seed obtained from the Wisconsin Crop Improvement Association, Madison, Wis.) were soaked in LPE or LPC. Seeds were soaked for either 30 minutes or 2 hours at room temperature (23±2° C.) and then incubated at 20° C. using the official seed germination test rules (Rules for testing seeds are published by the Association of Official Seed Analysts) for testing seeds. Four replications were conducted with 100 seeds in each replication. […] Moreover, a greater proportion of the seeds treated with these lipids, germinated earlier. Thus, this seed treating increased both the rate and amount of seed germination.

[6] = 100 mg/L sprayed before drought and right after water was given, after 2 or 3 days
[7] = 200 mg/L LPEegg spray, 4 days chilling at 4/2° C., vs water-sprayed control
[8] = 200 mg/L sprayed 1 hour before chilling
[9] = 200 mg/L sprayed right after chilling

lysophosphatidylinositol [LPI]
shoot growth after pesticide injury (Tomato Plants cv. H9144 [1]): vigorous shoot growth

CCCCCCCC/C=C\CCCCCCCC(=O)OCC(O)COP(=O)(O)OCCN (stereo not drawn) [LPE 18:1]
shoot growth after drought stress (Tomato plants cv. H9478; [6]): vigorous shoot growth
shoot growth after drought stress (Tomato plants cv. H9478; 100 mg/L, 7 days after drought stress was alleviated (FIG. 2)): vigorous shoot growth
shoot growth after pesticide injury (Tomato Plants cv. H9144 [1]): vigorous shoot growth

Lysophosphatidyl choline [LPC]
Root fresh wt per seedling ('Hazel' oat seeds): 40.4 ± 2.7 mg
Shoot Fresh wt per seedling ('Hazel' oat seeds): 108.9 ± 4.5 mg
Root fresh wt per seedlings ('Hazel' oat seeds): 48.9 ± 0.7 mg
Shoot Fresh wt per seedlings ('Hazel' oat seeds): 130.4 ± 2.7 mg

lysophosphatidylethanolamine [LPE]
protection from chilling injury (Tomato Plants cv. H9144 [2]; 100 mg/L LPEegg sprayed 1 hour before chilling, vs water-sprayed and non-sprayed controls): most effective in protecting the plant from chilling injury
chilling damage to the leaves (Tomato Plants cv. H9144 [2]; [7]): mitigation of chilling damage to the leaves
shoot meristem growth after chilling (Tomato Plants cv. H9144 [2]; [7]): enhanced shoot meristem growth
Leaf Chlorophyll Mean ± SE (Tomato Plants cv. H9144 [2]; [8]): 21.6 ± 0.1 mg/g dry wt
Leaf Phospholipids Mean ± SE (Tomato Plants cv. H9144 [2]; [8]): 25.9 ± 0.3 nmol/mg dry wt
Leaf Water (fresh/dry wt ratio) Mean ± SE (Tomato Plants cv. H9144 [2]; [8]): 10.1 ± 0.4 fresh/dry wt ratio
Leaf Chlorophyll Mean ± SE (Tomato Plants cv. H9144 [2]; [9]): 28.2 ± 4.0 mg/g dry wt
Leaf Phospholipids Mean ± SE (Tomato Plants cv. H9144 [2]; [9]): 25.7 ± 1.0 nmol/mg dry wt
Leaf Water (fresh/dry wt ratio) Mean ± SE (Tomato Plants cv. H9144 [2]; [9]): 10.81 ± 0.5 fresh/dry wt ratio
chilling damage in leaves [3]: severe chilling damage in leaves
shoot growth after chilling ([3]; after 7 days): vigorous shoot growth
shoot growth after drought stress (Tomato plants cv. H9478; [6]): vigorous shoot growth
leaf curling and browning after wounding ([4]; after 1 day): much less leaf curling and browning
leaf turgidity after wounding ([4]; in vivo): remained turgid for several days
wound-healing symptoms ([4]; in vivo): leaf damaged areas were healed and gained green color
Average Fresh Mass Produced from 50 seeds, Root (primary + secondary) ([5]; Table 2, 5 ppm): 1.6 ± 0.4 g
Average Fresh Mass Produced from 50 seeds, Shoot ([5]; Table 2, 5 ppm): 10.0 ± 0.5 g
% Germination After 4 days ([5]; Table 2, 5 ppm, 25° C.): 61.0 ± 1.7%
% Germination After 7 days ([5]; Table 2, 5 ppm, 25° C.): 70.0 ± 2.2%
Average Fresh Mass Produced from 50 seeds, Root (primary + secondary) ([5]; Table 2, 10 ppm): 1.3 ± 0.1 g
Average Fresh Mass Produced from 50 seeds, Shoot ([5]; Table 2, 10 ppm): 8.7 ± 0.2 g
% Germination After 4 days ([5]; Table 2, 10 ppm, 25° C.): 69.0 ± 2.6%
% Germination After 7 days ([5]; Table 2, 10 ppm, 25° C.): 71.5 ± 2.8%
Average Fresh Mass Produced from 50 seeds, Root (primary + secondary) ([5]; Table 2, 20 ppm): 1.2 ± 0.0 g
Average Fresh Mass Produced from 50 seeds, Shoot ([5]; Table 2, 20 ppm): 10.4 ± 0.4 g
% Germination After 4 days ([5]; Table 2, 20 ppm, 25° C.): 60.0 ± 3.6%
% Germination After 7 days ([5]; Table 2, 20 ppm, 25° C.): 65.0 ± 1.3%
% Germination After 4 days ([5]; Table 3 (Example 7), 1 ppm): 68.5 ± 4.0%
% Germination After 7 days ([5]; Table 3 (Example 7), 1 ppm): 76.5 ± 4.6%
Average Fresh Mass Produced from 50 seeds, Root (primary + secondary) ([5]; Table 3 (Example 7), 1 ppm): 0.9 ± 0.1 g
Average Fresh Mass Produced from 50 seeds, Shoot ([5]; Table 3 (Example 7), 1 ppm): 9.1 ± 0.8 g
% Germination After 4 days ([5]; Table 3 (Example 7), 10 ppm): 61.5 ± 5.7% and 73.8 ± 2.8%
% Germination After 7 days ([5]; Table 3 (Example 7), 10 ppm): 68.0 ± 3.4% and 78.0 ± 2.3%
Average Fresh Mass Produced from 50 seeds, Root (primary + secondary) ([5]; Table 3 (Example 7), 10 ppm): 0.8 ± 0.0 g and 1.1 ± 0.1 g
Average Fresh Mass Produced from 50 seeds, Shoot ([5]; Table 3 (Example 7), 10 ppm): 7.6 ± 0.3 g and 10.4 ± 0.4 g
% Germination (H.2350 field corn seeds; 5 ppm): 97.0 ± 0.6%
Fresh Weight Root (primary + secondary), average mass produced from 50 seeds (H.2350 field corn seeds; 5 ppm): 14.2 ± 0.8 g
Fresh Weight Shoot, average mass produced from 50 seeds (H.2350 field corn seeds; 5 ppm): 16.2 ± 0.6 g
% Germination (H.2350 field corn seeds; 10 ppm): 98.5 ± 1.0%
Fresh Weight Root (primary + secondary), average mass produced from 50 seeds (H.2350 field corn seeds; 10 ppm): 13.6 ± 0.3 g
Fresh Weight Shoot, average mass produced from 50 seeds (H.2350 field corn seeds; 10 ppm): 15.6 ± 0.7 g
% Germination (Mean ± SE) After 4 days ('Hazel' oats; soaked 30 min): 87.7 ± 0.9% and 82.5 ± 1.7%
% Germination (Mean ± SE) After 10 days ('Hazel' oats; soaked 30 min): 91.3 ± 0.7% and 90.8 ± 1.1%
% Germination (Mean ± SE) After 4 days ('Hazel' oats; soaked 2 hours): 82.8 ± 1.1% and 82.0 ± 1.2%
% Germination (Mean ± SE) After 10 days ('Hazel' oats; soaked 2 hours): 94.3 ± 1.3% and 93.5 ± 1.0%
Root fresh wt per seedling ('Hazel' oat seeds): 48.4 ± 1.9 mg
Shoot Fresh wt per seedling ('Hazel' oat seeds): 124.1 ± 3.0 mg
Root fresh wt per seedlings ('Hazel' oat seeds): 46.4 ± 0.6 mg
Shoot Fresh wt per seedlings ('Hazel' oat seeds): 121.1 ± 2.5 mg
